Source: the NIST ThermoML archive (doi:10.1016/j.jct.2005.11.009)
± gives the expanded uncertainty stated by the source.

Details: Liquid, Transpiration method

CCCCCCCCCCc1ccccc1 [1-phenyldecane]
vapor or sublimation pressure (318.2 K): 0.00122 ± 9e-05 kPa | vapor or sublimation pressure (323.2 K): 0.00192 ± 0.00014 kPa | vapor or sublimation pressure (328.3 K): 0.00293 ± 0.00021 kPa | vapor or sublimation pressure (333.5 K): 0.0045 ± 0.00032 kPa | vapor or sublimation pressure (338.6 K): 0.00655 ± 0.00047 kPa | vapor or sublimation pressure (343.7 K): 0.00966 ± 0.00069 kPa | vapor or sublimation pressure (348.7 K): 0.0144 ± 0.001 kPa | vapor or sublimation pressure (353.3 K): 0.0203 ± 0.0014 kPa | vapor or sublimation pressure (358.4 K): 0.0288 ± 0.002 kPa | vapor or sublimation pressure (363.4 K): 0.0406 ± 0.0029 kPa

CCCCCCCc1ccccc1 [heptylbenzene]
vapor or sublimation pressure (292.5 K): 0.00286 ± 0.00021 kPa | vapor or sublimation pressure (294.5 K): 0.00347 ± 0.00025 kPa | vapor or sublimation pressure (297.5 K): 0.00455 ± 0.00033 kPa | vapor or sublimation pressure (300.4 K): 0.00585 ± 0.00042 kPa | vapor or sublimation pressure (303.4 K): 0.00761 ± 0.00054 kPa | vapor or sublimation pressure (306.4 K): 0.00955 ± 0.00068 kPa | vapor or sublimation pressure (309.4 K): 0.01227 ± 0.00087 kPa | vapor or sublimation pressure (312.4 K): 0.01486 ± 0.0011 kPa | vapor or sublimation pressure (315.4 K): 0.01959 ± 0.0014 kPa | vapor or sublimation pressure (318.2 K): 0.02441 ± 0.0017 kPa | vapor or sublimation pressure (321.3 K): 0.03085 ± 0.0022 kPa | vapor or sublimation pressure (323.4 K): 0.03499 ± 0.0025 kPa | vapor or sublimation pressure (326.4 K): 0.04342 ± 0.0031 kPa | vapor or sublimation pressure (328.4 K): 0.04901 ± 0.0035 kPa | vapor or sublimation pressure (331.3 K): 0.06114 ± 0.0043 kPa | vapor or sublimation pressure (333.5 K): 0.06975 ± 0.0049 kPa | vapor or sublimation pressure (336.4 K): 0.0845 ± 0.006 kPa | vapor or sublimation pressure (338.5 K): 0.09752 ± 0.0069 kPa | vapor or sublimation pressure (341.3 K): 0.1139 ± 0.0081 kPa | vapor or sublimation pressure (343.5 K): 0.1322 ± 0.0094 kPa | vapor or sublimation pressure (346.3 K): 0.1552 ± 0.011 kPa | vapor or sublimation pressure (348.5 K): 0.1818 ± 0.013 kPa | vapor or sublimation pressure (351.5 K): 0.2197 ± 0.015 kPa | vapor or sublimation pressure (353.5 K): 0.2474 ± 0.018 kPa

CCCCCc1ccccc1 [pentylbenzene]
vapor or sublimation pressure (284.5 K): 0.0162 ± 0.0012 kPa | vapor or sublimation pressure (287.5 K): 0.0218 ± 0.0016 kPa | vapor or sublimation pressure (290.4 K): 0.0272 ± 0.0019 kPa | vapor or sublimation pressure (293.3 K): 0.0333 ± 0.0024 kPa | vapor or sublimation pressure (293.4 K): 0.0328 ± 0.0023 kPa | vapor or sublimation pressure (296.3 K): 0.0427 ± 0.003 kPa | vapor or sublimation pressure (298.3 K): 0.0493 ± 0.0035 kPa | vapor or sublimation pressure (303.2 K): 0.0706 ± 0.005 kPa | vapor or sublimation pressure (306.3 K): 0.0902 ± 0.0064 kPa | vapor or sublimation pressure (308.2 K): 0.0998 ± 0.0071 kPa | vapor or sublimation pressure (311.2 K): 0.1227 ± 0.0087 kPa | vapor or sublimation pressure (314.2 K): 0.1487 ± 0.011 kPa | vapor or sublimation pressure (317.3 K): 0.1765 ± 0.013 kPa | vapor or sublimation pressure (320.3 K): 0.2193 ± 0.016 kPa | vapor or sublimation pressure (323.2 K): 0.2711 ± 0.019 kPa

CCCCCCCCCCCc1ccccc1 [undecylbenzene]
vapor or sublimation pressure (313.2 K): 0.00027 ± 2e-05 kPa | vapor or sublimation pressure (319.3 K): 0.0005 ± 4e-05 kPa | vapor or sublimation pressure (323.3 K): 0.00072 ± 5e-05 kPa | vapor or sublimation pressure (327.3 K): 0.00104 ± 7e-05 kPa | vapor or sublimation pressure (331.3 K): 0.00146 ± 0.0001 kPa | vapor or sublimation pressure (333.4 K): 0.00176 ± 0.00013 kPa | vapor or sublimation pressure (338.4 K): 0.00262 ± 0.00019 kPa | vapor or sublimation pressure (343.5 K): 0.00413 ± 0.0003 kPa | vapor or sublimation pressure (348.7 K): 0.00598 ± 0.00043 kPa | vapor or sublimation pressure (353.6 K): 0.00906 ± 0.00065 kPa | vapor or sublimation pressure (358.7 K): 0.01272 ± 0.0009 kPa | vapor or sublimation pressure (363.8 K): 0.01807 ± 0.0013 kPa
